This note sets out measurements from publication PMC9863562, “Design, Synthesis, and Biological Evaluation of 2-Mercaptobenzoxazole Derivatives as Potential Multi-Kinase Inhibitors” (Pharmaceuticals, 2023).

Test [1] concerns HepG2 cells (hepatocellular carcinoma). Description: MTT cytotoxicity assay, HepG2. The note with it: Homo sapiens, HepG2, 24 h, 24 h treatment, read-out: In Vitro Cytotoxicity IC50 HepG2. Format: cell-based. An excerpt:
(§1) The in vitro cytotoxicity for the final target compounds, 4(a–d), 5(a–f), and 6(a–b), was preliminarily evaluated via the MTT colorimetric assay against a panel of four human cell lines, namely, the hepatocellular carcinoma (HepG2), mammary gland (MCF-7), breast cancer (MDA-MB-231) and epithelioid cervix carcinoma (HeLa).
(§2) The cytotoxicity of the target hybrids was examined by an MTT assay against HepG2, HeLa, MCF-7, and MDA-MB-231. At first, the RPMI-1640 medium with 10% fetal bovine serum was used to cultivate the cell lines. Then, antibiotics (penicillin (100 units/mL) and streptomycin (100 µg/mL)) were added in a 37 °C incubator in 5% CO2. The cell lines were seeded in a 96-well plate at a density of 1.0 × 10^4 cells/well at 37 °C under 5% CO2 for 48 h. After incubation, the cells were treated with various concentrations of the synthesized compounds and incubated for an additional 24 h. Following the drug treatment, 20 µL of 5 mg/mL MTT solution was added and incubated for 4 h. To dissolve the purple formazan that had formed, 100 µL dimethyl sulfoxide (DMSO) was added to each well. At a wavelength of 570 nm, the colorimetric assay was recorded and measured, using a plate reader BioTek EXL 800 (Agilent Technologies, Inc., Santa Clara, CA, USA). The percentage of relative cell viability was counted using the following formula (A570 of handled specimens/A570 of the unhandled specimen), multiplied by 100. The results of the cytotoxicity value were presented as the median growth inhibitory concentration (IC50) of the reagents compared to the control.
For orientation: Tetrazolium assays rely on reduction of a dye to a coloured formazan, in cell work by metabolically active cells.

The test system of test [2] is MDA-MB-231 cells (breast cancer). In words: MTT cytotoxicity assay, MDA-MB-231. In kind it is cell-based. The note with it: Homo sapiens, 24 h treatment, read-out: In Vitro Cytotoxicity IC50 MDA-MB-231. The method, then: After incubation, the cells were treated with various concentrations of the synthesized compounds and incubated for an additional 24 h. Following the drug treatment, 20 µL of 5 mg/mL MTT solution was added and incubated for 4 h. To dissolve the purple formazan that had formed, 100 µL dimethyl sulfoxide (DMSO) was added to each well. […] The percentage of relative cell viability was counted using the following formula (A570 of handled specimens/A570 of the unhandled specimen), multiplied by 100.

Test [3] concerns HepG2, MCF-7, MDA-MB-231 and HeLa cell lines. Description: MTT cytotoxicity assay, panel of four cell lines. Format: cell-based. The note with it: Homo sapiens, range over HepG2, MCF-7, MDA-MB-231, HeLa, read-out: IC50 values, range over the tested cell lines.
From the text: as §1, §2

Test [4] addresses T1, Human CDK2 (Homo sapiens, UniProt P24941).
T1 construct: purchased
Description: In vitro CDK2 enzyme assay (ELISA kit). In kind it is biochemical. The method, then:
(§3) Human CDK2, EGFR, HER2, and VEGFR-2 ELISA kits (Enzyme-Linked-Immunosorbent Serologic Assay) were used during this evaluation. At first, specified antibody proteins were added separately to a 96-well plate, then 0.1 mL of the standard solution or the evaluated molecule was added; these were then incubated for 2.5 h at RT. After rinsing, 100 μL of the ready-made biotin antibody protein was added, then incubated for one extra hour at room temperature and, finally, washed. Next, 100 μL of streptavidin solution was added, incubated at room temperature for 45 min, and then washed. Next, 100 μL of the TMB substrate reagent was added and incubated for 0.5 h at RT, followed by adding 50 μL of the stop solution. The absorbance of the ELISA plate was promptly measured at 450 nm using the ELISA plate reader.
A general note: ELISA stands for enzyme-linked immunosorbent assay.

Test [5] addresses T2, Human EGFR (Homo sapiens, UniProt P00533).
T2 construct: purchased
Description: In vitro EGFR enzyme assay (ELISA kit). In kind it is biochemical. The method, then:
as §3

For test [6], the system named is Bax. Description: Apoptosis-related proteins in HepG2 cells (ELISA), Bax. Format: cell-based, human. The text has this: (§4) Compound 6b was selected to investigate the apoptotic markers against the liver cancer cell line (HepG2). […] Typically, Bax, Bcl-2, and caspases contribute to the regulation of apoptotic signaling. Acting as an apoptotic activator (Bax) or inhibitor (Bcl-2), the Bcl-2 family of proteins plays a significant role in apoptosis. The caspase family comprises cysteine proteases that are classified as either executioner—caspase-3, or as initiators—caspase-9 and caspase-8 [40]. […] Nevertheless, considerable downregulation of the anti-apoptotic gene, Bcl-2 (0.26 folds), was described, leading to an increased expression ratio of Bax/Bcl-2 (1→20.53). The Bax/Bcl-2 gene expression ratio can serve as an early predictor for cancer in patients and is a sensitive monitor of cancer progression. Collating all the provided evidence, the upregulation of caspase-3, caspase-9, and Bax is clear, while the downregulation of Bcl-2 genes makes it evident that compound 6b induces apoptosis within the liver cancer cell line (HepG2).
The HepG2 cells were incubated in 96-well plates in triplicates and left for 24 h. After 24 h of incubation, the cells were treated with compound 6b at different concentrations, while control cells were only treated with 0.1% DMSO (v/v). The treated cells, along with control cells, were then incubated for another 24 h; then, caspases-3 and 9, BAX, and Bcl-2 levels were determined using ELISA assay kits; KHO1091 (Invitrogen^TM, Grand Island, NY, USA), EIA-4860 (DRU International, Inc., Mountainside, NJ, USA), EIA-4487 (DRU International INC., Mountainside, NJ, USA) and 99–0042 (Invitrogen^TM, Grand Island, NY, USA), respectively, according to their manufacturers’ procedures.

The test system of test [7] is Bcl-2. Description: Apoptosis-related proteins in HepG2 cells (ELISA), Bcl-2. In kind it is cell-based, human.
From the text: as §4, with “Collating all the provided evidence, the upregulation of caspase-3, caspase-9, and Bax is clear, while the downregulation of Bcl-2 genes makes it evident that compound 6b induces apoptosis within the liver cancer cell line (HepG2).” left out
The HepG2 cells were incubated in 96-well plates in triplicates and left for 24 h. […] The treated cells, along with control cells, were then incubated for another 24 h; then, caspases-3 and 9, BAX, and Bcl-2 levels were determined using ELISA assay kits; KHO1091 (Invitrogen^TM, Grand Island, NY, USA), EIA-4860 (DRU International, Inc., Mountainside, NJ, USA), EIA-4487 (DRU International INC., Mountainside, NJ, USA) and 99–0042 (Invitrogen^TM, Grand Island, NY, USA), respectively, according to their manufacturers’ procedures.

The subject of test [8] is HepG2 cells. Description: Annexin V-FITC/PI dual-staining apoptosis analysis. Format: cell-based, human. The note with it: HepG2, 6b at 6.83 μM, 24 h. How it is done: To identify the mode of cell death promoted by compound 6b within the liver cancer cells (HepG2), apoptosis rate analysis was performed, following 24 h of exposure. […] Moreover, the average proportion of Annexin-V-stained positive cells (total apoptotic cells) was elevated from 2.02% within the untreated cells to 16.84% within the treated ones. […] The provided findings are supported by the previous cell cycle analysis, confirming the potentiality of 6b as a promising anticancer agent (see Table 6 and Figure 6).
Apoptosis analysis was employed to evaluate the apoptotic effect of compound 6b. […] These stained cells were evaluated using flow cytometry equipment Epics XL-MCL™ (Beckman Coulter, Apeldoorn, Netherlands) with an excitation wavelength of 488 nm and an emission wavelength of 530 nm. The results were then analyzed with the Flowing software.

One may read the IC50 as the point on the concentration scale where inhibition reaches its midpoint.

T2 sequence (P00533 25-1210): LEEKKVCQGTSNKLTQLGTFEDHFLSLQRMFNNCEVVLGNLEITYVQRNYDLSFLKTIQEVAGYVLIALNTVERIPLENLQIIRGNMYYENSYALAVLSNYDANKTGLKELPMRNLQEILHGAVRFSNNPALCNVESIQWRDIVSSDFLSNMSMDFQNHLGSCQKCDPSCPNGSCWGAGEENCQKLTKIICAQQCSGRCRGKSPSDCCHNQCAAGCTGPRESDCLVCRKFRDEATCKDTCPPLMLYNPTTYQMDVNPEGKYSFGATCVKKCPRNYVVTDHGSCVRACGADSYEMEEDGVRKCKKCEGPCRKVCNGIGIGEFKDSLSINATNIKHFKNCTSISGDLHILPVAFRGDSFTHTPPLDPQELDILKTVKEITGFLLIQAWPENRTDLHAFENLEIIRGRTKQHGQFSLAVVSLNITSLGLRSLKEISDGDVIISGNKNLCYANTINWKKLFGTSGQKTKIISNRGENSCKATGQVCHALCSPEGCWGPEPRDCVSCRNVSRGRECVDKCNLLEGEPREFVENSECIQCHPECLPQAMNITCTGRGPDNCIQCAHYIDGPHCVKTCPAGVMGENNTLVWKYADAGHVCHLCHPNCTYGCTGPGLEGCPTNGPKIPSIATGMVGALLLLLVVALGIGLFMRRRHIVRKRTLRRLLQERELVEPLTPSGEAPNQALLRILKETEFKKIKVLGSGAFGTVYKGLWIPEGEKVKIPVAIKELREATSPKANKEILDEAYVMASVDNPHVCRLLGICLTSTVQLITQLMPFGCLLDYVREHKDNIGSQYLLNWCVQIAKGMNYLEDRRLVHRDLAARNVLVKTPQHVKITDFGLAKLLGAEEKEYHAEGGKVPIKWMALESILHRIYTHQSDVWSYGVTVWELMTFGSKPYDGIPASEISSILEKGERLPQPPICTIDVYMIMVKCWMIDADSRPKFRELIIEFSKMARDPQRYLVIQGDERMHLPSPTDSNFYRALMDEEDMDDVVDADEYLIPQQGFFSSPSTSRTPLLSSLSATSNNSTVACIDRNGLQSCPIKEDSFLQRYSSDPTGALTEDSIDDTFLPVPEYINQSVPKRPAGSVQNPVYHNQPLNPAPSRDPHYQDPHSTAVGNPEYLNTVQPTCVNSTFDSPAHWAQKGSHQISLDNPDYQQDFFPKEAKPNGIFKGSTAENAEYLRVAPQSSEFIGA

`O=C(CSc1nc2ccccc2o1)NN=Cc1ccc[nH]1` (mixture of isomers) [Compound 6b, (E/Z)-N′-((1H-pyrrol-2-yl)methylene)-2-(benzo[d]oxazol-2-ylthio)acetohydrazide]: the IC50 in test [1] is ~6830 nM; in test [2], 2140 ± 100 nM; in test [3] it was 2140 to 19300 nM; in test [4], 886 ± 46 nM; in test [5], 279 ± 17 nM. Also, the “Bax Expression” value in test [6] (24 h treatment, ELISA) turned out to be 448.4 ± 15.4 pg/mL. In addition, the “expression ratio of Bax/Bcl-2” value in test [6] (control = 1) was found to be 20.53. Further, in test [6] (versus control HepG2 = 1), the “Bax Fold” value was determined as 5.34 fold. In addition, the “Bcl-2 Expression” value in test [7] (24 h treatment, ELISA) was 2.822 ± 0.21 pg/mL. In addition, the “Bcl-2 Fold” value in test [7] (versus control HepG2 = 1) was found to be 0.26 fold. Besides, in test [8], the “Early Apoptosis (Lower Right %)” value worked out at 1.64%. The “Late Apoptosis (Upper Right %)” value in test [8] is 10.91%. For the same compound, the “Total (%) apoptotic cells” value in test [8] is 16.84%.
